The source of these data is patent US20260240880A1, “AGENT FOR AMELIORATING OR TREATING DEMENTIA, PRIMARILY ALZHEIMER'S DEMENTIA” (HOMO C[…] AND DEVELOPMENT INSTITUTE, priority 2023, published 2026).

“Also recorded” adds a separate entry of the source.

A short description of data set [1]: Body weight measurement once a week during 24 weeks of daily administration. In kind it is in vivo, mouse. On the set-up: Weight change / Weight change (average): unit not given here. The following applies: APPosk mice; for Weight loss after 24 weeks of daily administration: i.p. once daily, 0.9 or 1.8 mg/kg; for Weight change: range. From the text: (§1) Sixty-eight APPosk (SPF) male mice were produced according to the method described in Tomiyama T., Nagata T., Shimada H., Teraoka R., Fukushima A., Kanemitsu H., Takuma H., Kuwano R., Imagawa M., Ataka S., Wada Y., Yoshioka E., Nishizaki T., Watanabe Y., Mori H. A new amyloid β variant favoring oligomerization in Alzheimer's-type dementia. Ann. Neurol. 63, 377-387 (2008) at BioSafety Research Center Inc. (BSRC), which has a track record in producing model mice, and were raised until 24 weeks of age. These mice were then delivered to New Drug Research Center, Inc. and acclimatized until the preliminary breeding period. Note that quarantine was carried out from the date of arrival, considered as Day 0, up to Day 7. General observations were made daily, and body weights were measured on Day 1 (the day following the arrival), Day 3, and Day 7 after the arrival. Each individual was placed in a polysulfone cage and kept in an animal breeding room under conditions of a temperature of 22° C.±3° C., a humidity of 50%±20%, and a 12-hour light/dark cycle.
(§2) Of the 16 wild-type mice that arrived, 10 with weights close to the average were selected to form the normal group. Sixty-eight APPosk mice were delivered and assigned by stratified continuous randomization to the following groups: Pathological; Pathological+2ccPA (L); Pathological+2ccPA (H); Pathological+2cLPA (L); and Pathological+2cLPA (H). L: Low dose (0.9 mg/kg); H: High dose (1.8 mg/kg)
(§3) The dosing solution was filled into a syringe (disposable syringe) equipped with a 26G needle, and administered intraperitoneally once daily for 168 days (24 weeks). On the day when the Morris water maze test was performed, the dosing solution was administered after the Morris water maze test.
Body weight was measured using an electronic balance once a week. Each time, the measurement was carried out twice at different times.

Data set [2] concerns Alzheimer's dementia model mouse (APPosk). Nature of the data set: Morris water maze test (escape latency). In kind it is in vivo. The conditions noted are these: APPosk mice; for Memory improvement effect in the Morris water maze test: i.p. once daily for 168 days (24 weeks), tested at 48 weeks of age; for Memory effect in the Morris water maze test at low dose: low dose 0.9 mg/kg i.p. once daily for 24 weeks.
Description: as §1, §2, §3
When the mice reached 12 months of age (48 weeks of age), the Morris water maze test was performed.
The water maze (diameter: 90 cm; height: 60 cm; water temperature: approximately 22° C.) was made opaque with a white non-toxic paint (skim milk) and divided into four virtual quadrants (east, west, north, and south). A circular platform having a diameter of 8 cm was submerged approximately 1 cm below the water surface and placed near the center of the north quadrant. Black markers were placed on the walls of the water maze as extramaze cues.
The time it took to reach the platform placed in the water maze (escape latency) was measured over 4 days. Each animal underwent five consecutive trials, with an interval of approximately 20 seconds between the end and start of each trial.
Each trial began with the mouse being placed in any quadrant except the north quadrant, with its face facing the outer edge of the water maze. A webcam (Logicool HD Webcam C615) and SMART v3.0 (Panlab Harvard Apparatus) were used for measurement and analysis. […]

Data set [3] has as its system tau protein and phosphorylated tau protein. Nature of the data set: Quantitative determination of tau protein and phosphorylated tau protein (immunostaining of brain sections). In kind it is in vivo, mouse. The following applies: for Suppression of phosphorylation of tau protein: APPosk mice, low dose; for Phosphorylated tau (Ser396) area/Hippocampus area (average) / Phosphorylated tau (Ser404) area/Hippocampus area (average) / Tau protein area/Hippocampus area (average) / Phosphorylated tau (Ser396) area/Hippocampus area / Phosphorylated tau (Ser404) area/Hippocampus area / Tau protein area/Hippocampus area: APPosk-Tg mice, low dose (L) 0.9 mg/kg; for Phosphorylated tau (Ser396) area/Hippocampus area / Phosphorylated tau (Ser404) area/Hippocampus area / Tau protein area/Hippocampus area: range; for Tau protein area/Hippocampus area: five sections. From the text:
After exsanguination, 6 of the 10 individuals in each group (with numbers ending in 1 to 6) were perfused with phosphate-buffered saline (PBS) and then perfused again with 4% paraformaldehyde (PFA) to fix the brains, after which the brains were removed. The extracted brains were then infiltrated and fixed using the same fixative solution. The remaining four individuals in each group (with numbers ending in 7 to 10) were perfused whole body with PBS, and then their brains were extracted and frozen using liquid nitrogen.
Serial sections (thickness: 40 μm) of fixed mouse […] were prepared using a cryostat. The sections were incubated overnight with primary antibodies and then for 1 hour with secondary antibodies. Stained images were then captured using a confocal microscope (Carl Zeiss) and quantified using NIH ImageJ. The primary antibodies used were non-phosphorylated tau antibody (Invitrogen), phosphorylated tau (Ser396) antibody (Invitrogen), and phosphorylated tau (Ser404) antibody (Invitrogen), and the secondary antibodies used were biotinylated goat anti-mouse IgG antibody (Vector Lab.) and biotinylated goat anti-rabbit IgG antibody (Vector Lab.). Quantitative determination was carried out using five sections each.
Quantitative determination of tau protein and phosphorylated tau protein in the hippocampus of normal, pathological, pathological+2ccPA (low dose), and pathological+2cLPA (low dose) mice

A short description of data set [4]: In vivo hippocampal microdialysis with LC/MS determination of 2ccPA (blood-brain barrier crossing). On the set-up: species or system mouse. The following applies: 0.9 mg/kg i.p.; for 2ccPA concentration in microdialysis recovery fluid: hippocampus. The procedure: To confirm that 2ccPA crosses the blood-brain barrier (BBB) and enters the brain, an experiment was conducted at the Kurume Modality Analysis Laboratory of BioSafety Research Center Inc. (BSRC), which has a long track record in microdialysis, and the Institute for Disease Modeling, Kurume University School of Medicine.
2ccPA was administered intraperitoneally to 33-week-old male C57BL/6J-Aged mice (SPF, Jackson Laboratory Japan, Inc.) with a dialysis probe (FX-I-4-02, EICOM) placed in the hippocampus of the mouse brain. After that, the brain microdialysis perfusate was collected at […], 1 hour before administration and every 30 minutes (0.5 to 5.0 hours) after administration, using the in vivo microdialysis method.
The hippocampal guide cannula placement surgery was performed under isoflurane anesthesia, with a guide cannula and a dummy cannula placed at the hippocampal coordinate position (AP=−3.1 mm; ML=+2.7 mm; DV=−3.7 mm). After surgery, Vetorphale was administered subcutaneously for analgesia. Three to five days after the cannula was placed, the cannula was replaced with a dialysis probe under isoflurane inhalation anesthesia, and pre-perfusion (perfusion solution: saline containing 0.15% BSA) was then initiated.
2ccPA administration was performed under isoflurane anesthesia. D-PBS(−) containing 0.1% BSA was added to […], and the mixture was dispersed by ultrasonic treatment, thereby preparing a dosing solution.
The dosing solution was diluted with D-PBS(−) containing 0.1% BSA to a concentration of 0.9 mg/kg/day, and then sonicated individually just immediately administration. The administration route was intraperitoneal administration.
The microdialysis perfusate was collected at 11 time points: 1 hour before administration and 0.5, 1.0, 1.5, 2.0, 2.5, 3.0, 3.5, 4.0, 4.5, and 5.0 hours after administration, and each was collected into ice-cooled siliconized tubes.
Five mice in each test group underwent hippocampal cannula placement surgery, replacement with a dialysis probe, administration of the test substance, and collection of the microdialysis perfusate. The collected solution was added to an ice-cold acid-methanol solution (pH 4), stirred, and then promptly frozen in liquid nitrogen and stored at −80° C.
The concentration of 2ccPA in the perfusate collected by microdialysis from mice administered with 2ccPA was measured using LC/MS. The conditions are as follows: Shimizu Y., Fukasawa K., Yamamoto S., Shibike Y., Tsukahara R., Ishikawa M., Iwasa K., Yoshikawa K., Gotoh M., Murakami-Murofushi K. Evaluation of the pharmacokinetics of 2-carba-cyclic phosphatidic acid by liquid chromatography-triple quadrupole mass spectrometry
The standard solution for the calibration curve was prepared by adding ethanol to the standard substance, 2ccPA, dissolving it, and then mixing it with the blank matrix. The internal standard solution (IStd) was prepared by adding ultrapure water to the internal standard substance (ranitidine hydrochloride), dissolving it, and then diluting it with ultrapure water (10 ng/mL). The measurement specimen (microdialysis perfusate) was prepared by adding an acidic methanol solution (pH 4) in an amount five times the volume of the sample.
The measurement samples (the measurement specimen and the standard solution for the calibration curve) were deproteinized by adding a specimen treatment solution containing the internal standard solution to each sample. After centrifugation, the supernatant was filtered, and the 2ccPA concentration was measured using a Q Exactive Ultimate 3000 system (Thermo Scientific), thereby yielding the following results.

Setting [5] is: high dose (H) 1.8 mg/kg i.p. once daily for 24 weeks.
Where [6] appears, read: low dose (L) 0.9 mg/kg i.p. once daily for 24 weeks.

On to `CCCCCCCCC=CCCCCCCCC(=O)OCC1COP(=O)(O)C1` (stereo not shown) [2ccPA, oleoyl-2-carba-cPA], for which the “Weight loss after 24 weeks of daily administration” value in data set [1] is reported as “No weight loss was observed”. Further, the “Weight change (average)” value is reported as 32.1 in data set [1] (setting [5]) and 32.3 in data set [1] (setting [6]). For the same compound, the Weight change is recorded as 30.6-32.8 in data set [1] (setting [5]) and 31.4-33.6 in data set [1] (setting [6]). Moreover, the “Memory improvement effect in the Morris water maze test” value in data set [2] is on record as “significantly improved memory; also recorded: significantly improve memory decline”. Also, in data set [2] (0.9 mg/kg), the “Memory effect in the Morris water maze test at low dose” value is “memory maintenance effect comparable to that of the normal group; also recorded: clear effects”. Besides, the “Suppression of phosphorylation of tau protein” value in data set [3] is reported as “significantly suppress the phosphorylation of tau protein”. Also, the “Phosphorylated tau (Ser396) area/Hippocampus area (average)” value in data set [3] is “(2.3) %”. Moreover, the “Phosphorylated tau (Ser404) area/Hippocampus area (average)” value in data set [3] is on record as “(0.5) %”. Besides, in data set [3], the “Tau protein area/Hippocampus area (average)” value is given as “(17.4) %”. In addition, the “Phosphorylated tau (Ser396) area/Hippocampus area” value in data set [3] is on record as 2.0-4.9%. Besides, the “Phosphorylated tau (Ser404) area/Hippocampus area” value in data set [3] is recorded as 0.4-1.7%. For the same compound, the “Tau protein area/Hippocampus area” value in data set [3] is listed as 7.7-19.5%. The “2ccPA concentration in microdialysis recovery fluid” value is 1.90 ng/mL in data set [4] (0.5 hours after administration); 2.22 ng/mL in data set [4] (1.0 hours after administration); 2.81 ng/mL in data set [4] (1.5 hours after administration); 2.24 ng/mL in data set [4] (2.0 hours after administration); 1.64 ng/mL in data set [4] (2.5 hours after administration); 1.80 ng/mL in data set [4] (3.0 hours after administration). For the same compound, the “2ccPA concentration in microdialysis recovery fluid” value is 2.32 ng/mL in data set [4] (3.5 hours after administration); 2.12 ng/mL in data set [4] (4.0 hours after administration); 2.12 ng/mL in data set [4] (4.5 hours after administration); 1.22 ng/mL in data set [4] (5.0 hours after administration); 0 ng/mL in data set [4] (time 0 (before administration), C57BL/6J-Aged mice). The “Crossing of the blood-brain barrier” value in data set [4] (mice, hippocampal microdialysis) was “passed through the barrier of endothelial cells that line the walls of brain capillaries”.
Turning to oleoyl-2-carba-LPA [2cLPA], the “Weight loss after 24 weeks of daily administration” value in data set [1] is recorded as “No weight loss was observed”. Besides, in data set [1] (setting [5]), the “Weight change (average)” value is recorded as 30.2 and the Weight change was 29.6-31.9. In addition, in data set [1] (setting [6]), the “Weight change (average)” value came to 32.0 and the Weight change is listed as 30.8-33.3. Moreover, in data set [2], the “Memory improvement effect in the Morris water maze test” value is “significantly improved memory; also recorded: significantly improve memory decline” and the “Memory effect in the Morris water maze test at low dose” value is given as “clear effects”. Also, in data set [3], the “Suppression of phosphorylation of tau protein” value was “significantly suppress the phosphorylation of tau protein”, the “Phosphorylated tau (Ser396) area/Hippocampus area (average)” value is listed as “(2.4) %”, the “Phosphorylated tau (Ser404) area/Hippocampus area (average)” value is reported as “(1.2) %” and the “Tau protein area/Hippocampus area (average)” value is “(19.0) %”. Moreover, in data set [3], the “Phosphorylated tau (Ser396) area/Hippocampus area” value is given as 0.5-4.7%, the “Phosphorylated tau (Ser404) area/Hippocampus area” value was 0.9-1.8% and the “Tau protein area/Hippocampus area” value is 10.6-36.2%.
